# Test results reported in paper PMC6291622, “Vitamin E Increases Antimicrobial Sensitivity by Inhibiting Bacterial Lipocalin Antibiotic Binding” (mSphere, 2018).
# Target: T1, BcnA (Burkholderia cenocepacia, UniProt B4EE32)
# T1 construct: gene BCAL3311; purified BcnA expressed from pET28a-bcnA in E. coli BL21
# T1 sequence (B4EE32 27-186): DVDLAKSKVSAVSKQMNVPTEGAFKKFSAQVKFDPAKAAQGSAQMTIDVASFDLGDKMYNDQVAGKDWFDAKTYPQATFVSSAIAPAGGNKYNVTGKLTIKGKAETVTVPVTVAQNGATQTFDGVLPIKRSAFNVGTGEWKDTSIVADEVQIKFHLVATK
# Assay: isothermal titration calorimetry (ITC), […]°C, PBS pH […], N = […]
# Assay type: binding
structure (smiles),measurement,value
CCn1cc(C(=O)O)c(=O)c2cc(F)c(N3CCNCC3)cc21 [norfloxacin],Kd,4.9 mM
